In patent US20110172230A1, “UREA COMPOUND OR SALT THEREOF” (priority 2006, published 2011):
Structures can show the parent of a compound that is named as a salt.

Columns and labels:
[1] = target: T1, FAAH (Rattus norvegicus, UniProt P97612); experiment: Screening for an FAAH activity inhibiting substance using a rat brain homogenate (IC50); assay type: biochemical; details: radiolabeled anandamide substrate, 1 hour
T1 construct: the rat brain homogenate was diluted so that its protein concentration could be 60 μg/ml, thereby preparing an enzyme solution; from tissue; host or cells: rat cerebrum (SD-line male rat, 10 weeks) homogenate, 15000 x g pellet
T1 sequence (P97612 1-579): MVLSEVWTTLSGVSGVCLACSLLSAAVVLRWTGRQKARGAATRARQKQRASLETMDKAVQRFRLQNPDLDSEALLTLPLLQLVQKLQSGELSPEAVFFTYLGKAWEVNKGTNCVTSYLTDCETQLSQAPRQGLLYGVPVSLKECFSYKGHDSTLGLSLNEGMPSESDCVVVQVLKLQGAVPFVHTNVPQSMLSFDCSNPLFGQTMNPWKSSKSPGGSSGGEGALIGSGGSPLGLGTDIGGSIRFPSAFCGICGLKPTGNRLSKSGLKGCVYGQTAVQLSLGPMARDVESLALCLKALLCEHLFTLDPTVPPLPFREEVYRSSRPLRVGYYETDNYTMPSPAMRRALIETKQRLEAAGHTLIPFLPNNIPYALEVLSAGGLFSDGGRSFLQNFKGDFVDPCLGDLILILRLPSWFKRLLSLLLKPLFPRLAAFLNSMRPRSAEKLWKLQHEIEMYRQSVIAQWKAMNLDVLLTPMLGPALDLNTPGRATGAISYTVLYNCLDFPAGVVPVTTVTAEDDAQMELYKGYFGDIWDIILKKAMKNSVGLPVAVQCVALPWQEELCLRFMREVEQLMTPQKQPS
Description: Screening for an FAAH Activity Inhibiting Substance Using a Rat Brain Homogenate
(1) Preparation of a Rat Brain Homogenate
The head of a 10-week-old SD-line male rat (Japan SLC., Inc.) was cut off, and its cerebrum was taken out and weighed. Five times by volume its weight of an ice-cooled buffer (50 mM Tris-HCl (pH 7.4), 0.32 M sucrose) was added, and this was homogenized with a homogenizer in ice to give a uniform suspension. This was centrifuged (1500×g, 4° C., 15 minutes), and the supernatant was again centrifuged (15000×g, 4° C., 20 minutes) to obtain a precipitate. Further, using an ultrasonic wave generator (UR-20P, TOMY SEIKO CO., LTD.), this was ultrasonicated (power dial 4) for 5 seconds. The protein concentration of the resulting homogenate was measured according to a dye-coupling method (protein assay CBB solution, NACALAI TESQUE, INC.). Using a buffer (50 mM Tris-HCl (pH 8.0), 1 mM EDTA, 0.1 mg/ml BSA, 100 mM NaCl), the rat brain homogenate was diluted so that its protein concentration could be 60 μg/ml, thereby preparing an enzyme solution.
(2) Screening for an FAAH Activity Inhibiting Substance
A substrate solution was prepared, comprising 2 μCi/ml radiolabeled anandamide (Anandamide [ethanolamine 1-^3H] (American Radiolabeled Chemical)), 8 μM anandamide (Funakoshi), 50 mM Tris-HCl (pH 8.0), 1 mM EDTA, 0.1 mg/ml BSA and 100 mM NaCl. Test substance solutions were prepared, dissolved in DMSO to have a concentration from 1 nM to 100 μM. 50 μl of the substrate solution and 1 μl of the test substance solution were added to 50 μl of the enzyme solution, and left for 1 hour. As a control, DMSO was added in place of the test substance solution. To this, added was 200 μl of a 1:1 (ratio by volume) solution of chloroform/methanol, followed by vortexing. This was centrifuged (15000 rpm, 2 minutes), whereby the decomposed product ethanolamine (ethanolamine 1-^3H) was separated in the upper layer (water/methanol layer) and the unreacted radiolabeled anandamide (Anandamide [ethanolamine 1-^3H]) was in the lower layer (chloroform layer). 30 μl of the upper layer was transferred into a 96-well organic solvent-resistant white microplate (PicoPlate-96; Perkin Elmer, Inc.), 150 μl of Microscint-20 (Perkin Elmer, Inc.) was added thereto, and this was measured with a microplate scintillation counter (TopCount™; Beckman Coulter, Inc.). As compared with the control, the substance that gave a decreased value was selected as an FAAH activity-inhibiting substance.
(3) Measurement of the IC50 Value of the FAAH Activity Inhibiting Substance
The compound was dissolved in DMSO to have a varying concentration from 1 nM to 100 μM to prepare test substance solutions. According to the method mentioned above, the compound was analyzed for its influence on FAAH activity. As a control, DMSO was used. A measured value of a case where a buffer (50 mM Tris-HCl (pH 8.0), 1 mM EDTA, 0.1 mg/ml BSA, 100 mM NaCl) was reacted in place of the enzyme solution was subtracted from every measured value. Based on the measured value of the control, 100%, the IC50 value of the test substance was determined. Furthermore, Ex represents the Example No. as denoted below.

[2] = test system: cyclophosphamide (CPA)-induced urinary frequency; experiment: Effect of compound on cyclophosphamide (CPA)-induced urinary frequency in a rat (effective bladder capacity); assay type: in vivo; details: CPA (100 mg/kg i.p.)-treated Wistar female rats, p.o.; for effective dose in oral administration: effective bladder capacity over 1 hour
Description: Effect of Compound on Cyclophosphamide (CPA)-Induced Urinary Frequency in a Rat
Compounds were tested for their bladder irritation-relieving effect, using pathologic models. It is known that systemic administration of cyclophosphamide (CPA) converts the compound into its metabolite, acrolein, and, as existing in urine, this injures the bladder mucosa. In rats, CPA administration induces bladder pain or urinary frequency accompanied by hemorrhagic cystitis, and therefore using such rats, it is possible to evaluate the potency of drug for these symptoms. In this experiment, used were 9-week-old Wistar female rats (Charles River). CPA (100 mg/kg) was intraperitoneally administered to the rats, and after 2 days, the rats were tested. A test compound was orally administered (p.o.) to the rats; and after 15 minutes, distilled water (30 ml/kg) was forcedly orally administered thereto. The rats were put in a metabolic cage, and the weight of their urine was continuously measured for 1 hour. The overall urine amount was divided by the overall urination frequency, and the effective bladder capacity was thus calculated. […] In oral administration, the effective doses of compounds of Examples 155 and 210 were 10 mg/kg and 3 mg/kg, respectively.

O=C(Nc1cccnc1)N1CCN(Cc2ccnc(OCCC3CCCCC3)c2)CC1 [Example 30, 4-{[2-(2-cyclohexylethoxy)pyridin-4-yl]methyl}-N-pyridin-3-ylpiperazine-1-carboxamide trihydrochloride]
IC50 [1]: 0.03 µM

O=C(Nc1cnccn1)N1CCN(C(=O)c2ccnc(OCCC3CCCCC3)c2)CC1 [Example 38, 4-[2-(2-cyclohexylethoxy)isonicotinoyl]-N-pyrazin-2-ylpiperazine-1-carboxamide]
IC50 [1]: 0.005 µM

O=C(Nc1ncccn1)N1CCN(C(=O)c2cccc(OCCC3CCCCC3)c2)CC1 [Example 155]
IC50 [1]: 0.025 µM | effect on effective bladder capacity / urinary frequency [2]: increased the reduced effective bladder capacity, and relieved the condition of urinary frequency | effective dose in oral administration [2]: 10 mg/kg

O=C(Nc1cnccn1)N1CCN(C(=O)c2cccc(OCCC3CCCCC3)c2)CC1 [Example 210]
IC50 [1]: 0.0033 µM | effect on effective bladder capacity / urinary frequency [2]: increased the reduced effective bladder capacity, and relieved the condition of urinary frequency | effective dose in oral administration [2]: 3 mg/kg

CN(CCC1CCCCC1)c1ccc(C(=O)N2CCN(C(=O)Nc3cccnc3)CC2)cc1 [Example 334]
IC50 [1]: 0.042 µM

COCC(=O)NC(=O)N1CCN(Cc2cccc(OCCC3CCCCC3)c2)CC1 [Example 439]
IC50 [1]: 0.025 µM
